Reference: patent US6812250B2, “Carboxamide-substituted phenylurea derivatives, process for their preparation and their use as medicaments” (Aventis Pharma Deutschland GmbH, priority 2001, dated 2004)

Biological target: T1, human glycogen phosphorylase a (Homo sapiens, UniProt P06737)
T1 sequence (P06737 1-847): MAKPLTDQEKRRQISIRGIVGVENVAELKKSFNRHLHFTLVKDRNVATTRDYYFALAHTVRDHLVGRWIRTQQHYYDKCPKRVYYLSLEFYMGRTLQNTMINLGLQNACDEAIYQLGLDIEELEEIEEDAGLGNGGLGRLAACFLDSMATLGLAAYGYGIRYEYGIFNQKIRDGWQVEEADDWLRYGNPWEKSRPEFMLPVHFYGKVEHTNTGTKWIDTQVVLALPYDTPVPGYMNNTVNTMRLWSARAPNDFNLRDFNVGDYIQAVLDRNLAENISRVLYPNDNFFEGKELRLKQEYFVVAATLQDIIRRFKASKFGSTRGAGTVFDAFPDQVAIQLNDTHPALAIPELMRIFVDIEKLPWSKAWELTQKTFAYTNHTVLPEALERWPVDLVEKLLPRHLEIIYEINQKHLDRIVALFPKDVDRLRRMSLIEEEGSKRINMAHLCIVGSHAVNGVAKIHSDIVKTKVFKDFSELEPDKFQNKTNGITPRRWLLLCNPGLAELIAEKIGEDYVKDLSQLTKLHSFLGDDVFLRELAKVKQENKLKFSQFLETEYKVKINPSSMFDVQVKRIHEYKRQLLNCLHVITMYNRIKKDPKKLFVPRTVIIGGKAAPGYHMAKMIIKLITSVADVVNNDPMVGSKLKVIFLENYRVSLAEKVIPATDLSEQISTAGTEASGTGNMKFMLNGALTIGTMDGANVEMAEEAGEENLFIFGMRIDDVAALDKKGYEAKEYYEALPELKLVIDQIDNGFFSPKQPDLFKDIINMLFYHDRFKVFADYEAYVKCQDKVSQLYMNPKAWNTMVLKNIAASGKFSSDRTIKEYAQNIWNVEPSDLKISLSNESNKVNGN
Assay: Glycogen phosphorylase a activity assay
Type: biochemical
Conditions: 10 μM test substance; GPa activity measured in the reverse direction (glycogen synthesis from glucose 1-phosphate, liberated inorganic phosphate, absorption at 820 nm); in vitro
Experimental: Glycogen Phosphorylase a Activity Assay
The effect of compounds on the activity of the active form of glycogen phosphorylase (GPa) was measured in the reverse direction by following the synthesis of glycogen from glucose 1-phosphate by determining the liberation of inorganic phosphate. All the reactions were carried out as duplicate determinations in microtiter plates with 96 wells (Half Area Plates, Costar No 3696), measuring the change in absorption owing to the formation of the reaction product at the wavelength specified hereinafter in a Multiskan Ascent Elisa Reader (Lab Systems, Finland). […] The baseline glycogen phosphorylase a activity in the absence of test substance was determined by adding 10 μl of buffer solution T (0.1% DMSO). The mixture was incubated at room temperature for 40 minutes, and the liberated inorganic phosphate was measured by the general method of Drueckes et al. (Drueckes P, Schinzel R, Palm D, Anal Biochem 1995 Sep. 1;230(1):173-177) with the following modifications: 50 μl of a stop solution of 7.3 mM ammonium molybdate, 10.9 mM zinc acetate, 3.6% ascorbic acid, 0.9% SDS are added to 50 μl of the enzyme mixture. After incubation at 45° C. for 60 minutes, the absorption at 820 nm was measured. […]

Compound `CCOC(=O)N1CCC(NC(=O)c2ccc(Cl)c(NC(=O)NC(=O)c3ccccc3Cl)c2)CC1` [Example 1, Ethyl 4-{4-chloro-3-[3-(2-chlorobenzoyl)ureido]benzoylamino}piperidine-1-carboxylate] has an inhibition at 10 µM of 87%.
